From patent publication US20120029054A1, “RNA Interference Mediated Inhibition of GATA Binding Protein 3 (GATA3) Gene Expression Using Short Intefering Nucleic Acid (siNA)” (Merck Sharp & Dohme Corp., priority 2009, published 2012) come the findings set out here.

[invAb] = inverted abasic unit; m = 2'-O-methyl; r = 2'-OH (RNA); f = 2'-fluoro

Data set [1] relates to GATA3 mRNA. In words: GATA3 mRNA knock-down (Taqman qRT-PCR) after RNAiMax transfection of human MCF7 cells; screen and IC50 dose response. As to conditions: 10 nM siNA, MCF7 cells, 24 hrs, average of 3 experiments. Format: cell-based. As to the method: MCF7 (human; ATCC cat# HTB-22): Cells were cultured at 37° C. in the presence of 5% CO2 and grown in Eagle's Minimum Essential medium with supplemented with fetal bovine serum at a final concentration of 10% and 100 μg/mL of streptomycin and 100 U/mL penicillin.
(§1) Cells were plated in all wells of a tissue-culture treated, 96-well plate at a final count of 5000 cells/well in 100 μL of the appropriate culture media. The cells were cultured for 24 hours after plating at 37° C. in the presence of 5% CO2.
(§2) After 24 hours, complexes containing siNA and RNAiMax were created as follows: A solution of RNAiMax diluted 33-fold in OPTI-MEM was prepared. In parallel, solutions of the siNAs for testing were prepared to a final concentration of 120 nM in OPTI-MEM. After incubation of RNAiMax/OPTI-MEM solution at room temperature for 5 min, an equal volume of the siNA solution and the RNAiMax solution were added together for each of the siNAs.
(§3) This solution was incubated at room temperature for 20 minutes. After incubation, 20 uL of the solution was added to each of the relevant wells. The final concentration of siNA in each well was 10 nM and the final volume of RNAiMax in each well was 0.3 ul.
(§4) The time of incubation with the RNAiMax-siNA complexes was 24 hours and there was no change in media between transfection and harvesting, unless otherwise indicated.
(§5) RNA was extracted from a 96-well plate using the TaqMan® Gene Expression Cells-to-CT™ Kit (Cat#4399002) with a modified protocol. Briefly, a 60 uL (1 plate) or 110 uL (2 plates) of the Lysis Solution with DNase I was dispensed into each well of the Lysis Buffer Plate (twin.tec full skirt plate). The lysis buffer and stop plates were stored at 4° C. until the cells were washed.
(§6) The plate was spun at 1100 rpm for 5 minutes. The culture medium was aspirated and discarded from the wells of the culture plate. The lysis was performed automatically using a BioMek FX instrument and method. After the Biomek method was completed, the lysis plate was incubated for 2 min. at room temperature. The lysis plate can be stored for 2 hours at 4° C., or at −20° C. or −80° C. for two months.
(§7) Each well of the reverse transcription plate required 10 uL of 2× reverse transcriptase Buffer, 1 uL of 20× reverse transcription enzyme and 2 uL of nuclease-free water. The reverse transcription master mix was prepared by mixing 2× reverse transcription buffer, 20× reverse transcription enzyme mix, and nuclease-free water. 13 uL of the reverse transcription master mix was dispensed into each well of the reverse transcription plate (semi-skirted). A separate reverse transcription plate was prepared for each cell plate. The plate was loaded onto a Biomek NX or Biomek FX Dual-96 and the Biomek method was run. The program is programmed to automatically added 7 uL of lysate from the cell lysis procedure described above into each well of the reverse transcription plate. The plate is sealed and spun on a centrifuge (1000 rpm for 30 seconds) to settle the contents to the bottom of the reverse transcription plate. The plate is placed in a thermocycler at 37° C. for 60 min, 95° C. for 5 min, and 4° C. until the plate is removed from the thermocycler. Upon removal, if not used immediately, the plate was frozen at −20° C.
(§8) A series of probes and primers were used to detect the various mRNA transcripts of the genes of β-Actin (human cell line only), and of GATA3 and GAPDH in mouse and human cell lines. All Taqman probes and primers for the experiments here-in described were supplied as pre-validated sets by Applied Biosystems, Inc. (see Table 2).
(§9) The assays were performed on an ABI 7900 instrument, according to the manufacturer's instructions. A TaqMan Gene Expression Master Mix (provided in the Cells-to-CT™, Applied Biosystems, Cat #4399002) was used. The PCR reactions were carried out at 50° C. for 2 min, 95° C. for 20 min followed by 40 cycles at 95° C. for 15 secs and 60° C. for 1 min. […]

Data set [2] relates to GATA3 mRNA. In words: GATA3 mRNA knock-down (Taqman qRT-PCR) after RNAiMax transfection of mouse RAG cells. The format is cell-based. As to conditions: 10 nM siNA, 24 hrs, average of 2 experiments. As to the method: RAG (murine; ATCC cat# CCL-142): Cells were cultured at 37° C. in the presence of 5% CO2 and grown in Eagle's Minimum Essential medium with supplemented with 10% of fetal bovine serum, 100 μg/mL of streptomycin, and 100 U/mL penicillin.
as §1, §2, §3, §4, §5, §6, §7, §8, §9

“30245-DC: GATA3 siNA duplex, site 1829: sense B GccAuccAGccuGuccuuu TTB (SEQ 43), antisense AAAGGAcAGGcuGGAuGGcUU (SEQ 44) (sense GCCAUCCAGCCUGUCCUUUTT; antisense AAAGGACAGGCUGGAUGGCUU; chemistry not fully specified)”: the “% KD Human” value with GATA3 mRNA [1] turned out to be 24 ± 2%. Further, the “% KD Mouse” value in the data set on GATA3 mRNA [2] came to 20 ± 7%.
For “30246-DC: GATA3 siNA duplex, site 1883: sense B GGGuuAGAGcccuGcucGA TTB (SEQ 45), antisense UCGAGcAGGGcucuAAcccUU (SEQ 46) (sense GGGUUAGAGCCCUGCUCGATT; antisense UCGAGCAGGGCUCUAACCCUU; chemistry not fully specified)”, in that order: −6 ± 19% and −1 ± 2%.
For “30247-DC: GATA3 siNA duplex, site 763: sense B GGGccAcGGuGcAGAGGuA TTB (SEQ 47), antisense UACcucuGcAccGuGGcccUU (SEQ 48) (sense GGGCCACGGUGCAGAGGUATT; antisense UACCUCUGCACCGUGGCCCUU; chemistry not fully specified)”, in that order: −7 ± 17% and −25 ± 14%.
“30248-DC: GATA3 siNA duplex, site 643: sense B cGGGccucAGccAcuccuA TTB (SEQ 49), antisense UAGGAGuGGcuGAGGcccGUU (SEQ 50) (sense CGGGCCUCAGCCACUCCUATT; antisense UAGGAGUGGCUGAGGCCCGUU; chemistry not fully specified)”: in the data set on GATA3 mRNA [1], the “% KD Human” value worked out at 18 ± 4%. Moreover, the “% KD Mouse” value in the data set with GATA3 mRNA [2] amounted to 1 ± 5%.
For “30249-DC: GATA3 siNA duplex, site 673: sense B cGcAGuAcccGcuGccGGA TTB (SEQ 51), antisense UCCGGcAGcGGGuAcuGcGUU (SEQ 52) (sense CGCAGUACCCGCUGCCGGATT; antisense UCCGGCAGCGGGUACUGCGUU; sense: DNA at AGT, 2'-fluoro at CU, [invAb] at 5' end, 3' end, backbone not given here; antisense: sugars from the 5' end rrrmmfmmfmmmfmffmfmmm, backbone not given here)”, in that order: 1 ± 19% and −12 ± 2%.
In the case of “30250-DC: GATA3 siNA duplex, site 727: sense B GcAAccAcGucccGcccuA TTB (SEQ 53), antisense UAGGGcGGGAcGuGGuuGcUU (SEQ 54) (sense GCAACCACGUCCCGCCCUATT; antisense UAGGGCGGGACGUGGUUGCUU; chemistry not fully specified)”, in the data set on GATA3 mRNA [1], the “% KD Human” value was 6 ± 9%. The “% KD Mouse” value with GATA3 mRNA [2] was −9 ± 8%.
For “30251-DC: GATA3 siNA duplex, site 735: sense B GucccGcccuAcuAcGGAA TTB (SEQ 55), antisense UUCcGuAGuAGGGcGGGAcUU (SEQ 56) (sense GUCCCGCCCUACUACGGAATT; antisense UUCCGUAGUAGGGCGGGACUU; sense: DNA at AGT, 2'-fluoro at CU, [invAb] at 5' end, 3' end, backbone not given here; antisense: sugars from the 5' end rrrfmfmmfmmmmfmmmmfmm, backbone not given here)”, in that order: −127 ± 32% and −30 ± 18%.
In the same order, the values of “30252-DC: GATA3 siNA duplex, site 1084: sense B cccGGcAGGAcGAGAAAGA TTB (SEQ 57), antisense UCUuucucGuccuGccGGGUU (SEQ 58) (sense CCCGGCAGGACGAGAAAGATT; antisense UCUUUCUCGUCCUGCCGGGUU; sense: DNA at AGT, 2'-fluoro at C, [invAb] at 5' end, 3' end, backbone not given here; antisense: sugars from the 5' end rrrfffffmffffmffmmmmm, backbone not given here)” are −3 ± 2% and 0 ± 4%.
For “30253-DC: GATA3 siNA duplex, site 644: sense B GGGccucAGccAcuccuAc TTB (SEQ 59), antisense GUAGGAGuGGcuGAGGcccUU (SEQ 60) (sense GGGCCUCAGCCACUCCUACTT; antisense GUAGGAGUGGCUGAGGCCCUU; chemistry not fully specified)”, in that order: −1 ± 11% and −6 ± 1%.
For the substance “30254-DC: GATA3 siNA duplex, site 619: sense B GGcAGcAcccGGAcAcGcA TTB (SEQ 61), antisense UGCGuGuccGGGuGcuGccUU (SEQ 62) (sense GGCAGCACCCGGACACGCATT; antisense UGCGUGUCCGGGUGCUGCCUU; chemistry not fully specified)”, in the data set with GATA3 mRNA [1], the “% KD Human” value is −27 ± 15%. In the data set with GATA3 mRNA [2], the “% KD Mouse” value is recorded as 6 ± 5%.
With “30255-DC: GATA3 siNA duplex, site 1085: sense B ccGGcAGGAcGAGAAAGAG TTB (SEQ 63), antisense CUCuuucucGuccuGccGGUU (SEQ 64) (sense CCGGCAGGACGAGAAAGAGTT; antisense CUCUUUCUCGUCCUGCCGGUU; sense: DNA at AGT, 2'-fluoro at C, [invAb] at 5' end, 3' end, backbone not given here; antisense: sugars from the 5' end rrrffffffmffffmffmmmm, backbone not given here)”, in the data set on GATA3 mRNA [1], the “% KD Human” value is listed as 26 ± 11%. Moreover, the “% KD Mouse” value with GATA3 mRNA [2] is 40 ± 3%.
For “30256-DC: GATA3 siNA duplex, site 719: sense B cGGucAAGGcAAccAcGuc TTB (SEQ 65), antisense GACGuGGuuGccuuGAccGUU (SEQ 66) (sense CGGUCAAGGCAACCACGUCTT; antisense GACGUGGUUGCCUUGACCGUU; chemistry not fully specified)”, in that order: −19 ± 5% and 1 ± 6%.
For “30257-DC: GATA3 siNA duplex, site 1830: sense B ccAuccAGccuGuccuuuG TTB (SEQ 67), antisense CAAAGGAcAGGcuGGAuGGUU (SEQ 68) (sense CCAUCCAGCCUGUCCUUUGTT; antisense CAAAGGACAGGCUGGAUGGUU; chemistry not fully specified)”, in that order: −3 ± 3% and −4 ± 5%.
For “30258-DC: GATA3 siNA duplex, site 990: sense B cAcGccAGcccGcAccucu TTB (SEQ 69), antisense AGAGGuGcGGGcuGGcGuGUU (SEQ 70) (sense CACGCCAGCCCGCACCUCUTT; antisense AGAGGUGCGGGCUGGCGUGUU; chemistry not fully specified)”, in that order: 0 ± 4% and −12 ± 4%.
Take “30259-DC: GATA3 siNA duplex, site 713: sense B cAucGAcGGucAAGGcAAc TTB (SEQ 71), antisense GUUGccuuGAccGucGAuGUU (SEQ 72) (sense CAUCGACGGUCAAGGCAACTT; antisense GUUGCCUUGACCGUCGAUGUU; chemistry not fully specified)”: in the data set on GATA3 mRNA [1], the “% KD Human” value amounted to 36 ± 2%. The “% KD Mouse” value in the data set on GATA3 mRNA [2] is 60 ± 1%.
